We go through seven cell lines from the supplement of paper PMC10307832.

What all share (experiment): relative viability (nuclei count vs DMSO), 5 days (fraction); higher = more cells survive
Compound in the assay “Sulindac + Tozasertib”: CC1=C(CC(=O)O)c2cc(F)ccc2/C1=C\c1ccc([S+](C)[O-])cc1 [Sulindac] + Cc1cc(Nc2cc(N3CCN(C)CC3)nc(Sc3ccc(NC(=O)C4CC4)cc3)n2)n[nH]1 [Tozasertib] (partner 0.1 µM)
In a few lines: (§1)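 Lung cancer cell lines in 1536-well plates were dosed by pin tool the day after seeding, either with one drug alone or with a fixed anchor-drug dose plus five library-drug doses (not always all listed) in √10 steps. After 5 days, cells were fixed and their nuclei stained in one step (final 0.05% Triton X-100, 1% formaldehyde, 1 ug/ml Hoechst), then counted on 4× images. Relative viability is the nuclei count in treated wells divided by that in vehicle wells. Values are medians of duplicate plates.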

Compound in the assay “Staurosporine + OSI-027”: CN[C@@H]1C[C@H]2O[C@@](C)([C@@H]1OC)n1c3ccccc3c3c4c(c5c6ccccc6n2c5c31)C(=O)NC4 [Staurosporine] + COc1cccc2cc(-c3nc([C@H]4CC[C@H](C(=O)O)CC4)n4ncnc(N)c34)[nH]c12 [OSI-027] (partner 0.5 µM)
The gist of the method: as §1

Compound in assay [1]: O=c1[nH]cc(F)c(=O)[nH]1 [5-Fluorouracil] + CS(=O)(=O)N1CCN(Cc2cc3nc(-c4cccc5[nH]ncc45)nc(N4CCOCC4)c3s2)CC1 [Pictilisib] (partner 1 µM)
In a few lines: as §1

Compound in assay [2]: O=c1[nH]cc(F)c(=O)[nH]1 [5-Fluorouracil] + O=C(CCCCCCC(=O)Nc1ccccc1)NO [Vorinostat] (partner 1 µM)
The gist of the method:
as §1

For the cell line NCI-H3122, the relative viability with Sulindac + Tozasertib (first compound 0.08 µM) was 0.4; with Sulindac + Tozasertib (first compound 0.253 µM), 0.469; with Sulindac + Tozasertib (first compound 0.8 µM), 0.377; with Sulindac + Tozasertib (first compound 2.53 µM) it was 0.352; in the assay with Sulindac + Tozasertib (first compound 8 µM), 0.466; in the assay with Staurosporine + OSI-027 (first compound 0.005 µM) it was 1.25. Also, the relative viability with Staurosporine + OSI-027 (first compound 0.05 µM) worked out at 0.857; with Staurosporine + OSI-027 (first compound 0.1581 µM) it was 0.155; with Staurosporine + OSI-027 (first compound 0.5 µM) it was 0.0733; in assay [1] (first compound 0.02 µM), 0.608; in assay [1] (first compound 0.2 µM), 0.662; in assay [1] (first compound 0.6325 µM) it was 0.312. For the same cell line, the relative viability is 0.256 in assay [1] (first compound 2 µM), 0.985 in assay [2] (first compound 0.02 µM), 0.867 in assay [2] (first compound 0.2 µM) and 0.392 in assay [2] (first compound 0.6325 µM).
In the case of PC-3 [JPC-3], the relative viability came out at 0.982 with Sulindac + Tozasertib (first compound 0.08 µM); 0.984 with Sulindac + Tozasertib (first compound 0.253 µM); 0.828 with Sulindac + Tozasertib (first compound 0.8 µM); 0.868 with Sulindac + Tozasertib (first compound 2.53 µM); 0.878 with Sulindac + Tozasertib (first compound 8 µM); 0.678 with Staurosporine + OSI-027 (first compound 0.005 µM). Besides, the relative viability in the assay with Staurosporine + OSI-027 (first compound 0.01581 µM) amounted to 0.295; with Staurosporine + OSI-027 (first compound 0.05 µM) it was 0.39; with Staurosporine + OSI-027 (first compound 0.1581 µM), 0.303; with Staurosporine + OSI-027 (first compound 0.5 µM) it was 0.229; in assay [1] (first compound 0.02 µM), 0.77; in assay [1] (first compound 0.2 µM), 0.757. Besides, the relative viability in assay [1] (first compound 0.6325 µM) turned out to be 0.796; in assay [1] (first compound 2 µM), 0.612; in assay [2] (first compound 0.02 µM), 0.752; in assay [2] (first compound 0.2 µM), 0.825; in assay [2] (first compound 0.6325 µM), 0.871; in assay [2] (first compound 2 µM), 0.522.
With PC-14, the relative viability was 0.605 with Sulindac + Tozasertib (first compound 0.08 µM); 0.659 with Sulindac + Tozasertib (first compound 0.253 µM); 0.538 with Sulindac + Tozasertib (first compound 0.8 µM); 0.575 in the assay with Sulindac + Tozasertib (first compound 2.53 µM); 0.685 in the assay with Sulindac + Tozasertib (first compound 8 µM); 0.325 with Staurosporine + OSI-027 (first compound 0.005 µM). In addition, the relative viability was found to be 0.0499 in the assay with Staurosporine + OSI-027 (first compound 0.01581 µM); 0.0618 with Staurosporine + OSI-027 (first compound 0.05 µM); 0.0552 with Staurosporine + OSI-027 (first compound 0.1581 µM); 0.0305 with Staurosporine + OSI-027 (first compound 0.5 µM); 0.711 in assay [1] (first compound 0.02 µM); 0.763 in assay [1] (first compound 0.2 µM). In addition, the relative viability in assay [1] (first compound 0.6325 µM) was 0.7; in assay [1] (first compound 2 µM), 0.415; in assay [2] (first compound 0.02 µM) it was 0.82; in assay [2] (first compound 0.2 µM), 0.635; in assay [2] (first compound 0.6325 µM), 0.623; in assay [2] (first compound 2 µM), 0.355.
Regarding RERF-LC-KJ, the relative viability with Sulindac + Tozasertib (first compound 0.08 µM) was determined as 0.569; in the assay with Sulindac + Tozasertib (first compound 0.253 µM) it was 0.56; with Sulindac + Tozasertib (first compound 0.8 µM), 0.521; with Sulindac + Tozasertib (first compound 2.53 µM) it was 0.307; with Sulindac + Tozasertib (first compound 8 µM) it was 0.568; with Staurosporine + OSI-027 (first compound 0.005 µM), 0.475. The relative viability with Staurosporine + OSI-027 (first compound 0.01581 µM) was found to be 0.3; in the assay with Staurosporine + OSI-027 (first compound 0.05 µM) it was 0.234; in the assay with Staurosporine + OSI-027 (first compound 0.1581 µM), 0.234; with Staurosporine + OSI-027 (first compound 0.5 µM), 0.181; in assay [1] (first compound 0.02 µM) it was 0.587; in assay [1] (first compound 0.2 µM), 0.593. Also, the relative viability stood at 0.604 in assay [1] (first compound 0.6325 µM); 0.465 in assay [1] (first compound 2 µM); 0.741 in assay [2] (first compound 0.02 µM); 0.736 in assay [2] (first compound 0.2 µM); 0.725 in assay [2] (first compound 0.6325 µM); 0.56 in assay [2] (first compound 2 µM).
Take SK-LU-1: the relative viability is 0.286 in the assay with Sulindac + Tozasertib (first compound 0.08 µM); 0.347 in the assay with Sulindac + Tozasertib (first compound 0.253 µM); 0.342 in the assay with Sulindac + Tozasertib (first compound 0.8 µM); 0.288 with Sulindac + Tozasertib (first compound 2.53 µM); 0.406 with Sulindac + Tozasertib (first compound 8 µM); 0.214 with Staurosporine + OSI-027 (first compound 0.005 µM). For the same cell line, the relative viability with Staurosporine + OSI-027 (first compound 0.01581 µM) is 0.0957; in the assay with Staurosporine + OSI-027 (first compound 0.1581 µM), 0.113; with Staurosporine + OSI-027 (first compound 0.5 µM), 0.0858; in assay [1] (first compound 0.02 µM) it was 0.491; in assay [1] (first compound 0.2 µM) it was 0.558; in assay [1] (first compound 0.6325 µM), 0.549. Further, the relative viability in assay [1] (first compound 2 µM) stood at 0.402; in assay [2] (first compound 0.02 µM), 0.705; in assay [2] (first compound 0.2 µM) it was 0.885; in assay [2] (first compound 0.6325 µM) it was 0.744; in assay [2] (first compound 2 µM) it was 0.681.
With SK-MES-1, the relative viability amounted to 1.07 with Sulindac + Tozasertib (first compound 0.08 µM); 1.01 with Sulindac + Tozasertib (first compound 0.253 µM); 0.848 with Sulindac + Tozasertib (first compound 0.8 µM); 0.956 in the assay with Sulindac + Tozasertib (first compound 2.53 µM); 1.09 in the assay with Sulindac + Tozasertib (first compound 8 µM); 0.202 with Staurosporine + OSI-027 (first compound 0.005 µM). In addition, the relative viability with Staurosporine + OSI-027 (first compound 0.01581 µM) was 0.18; in the assay with Staurosporine + OSI-027 (first compound 0.05 µM), 0.147; with Staurosporine + OSI-027 (first compound 0.1581 µM), 0.134; with Staurosporine + OSI-027 (first compound 0.5 µM) it was 0.106; in assay [1] (first compound 0.02 µM) it was 0.34; in assay [1] (first compound 0.2 µM), 0.338. The relative viability is 0.297 in assay [1] (first compound 0.6325 µM); 0.196 in assay [1] (first compound 2 µM); 1.2 in assay [2] (first compound 0.02 µM); 0.404 in assay [2] (first compound 0.2 µM); 0.306 in assay [2] (first compound 0.6325 µM); 0.302 in assay [2] (first compound 2 µM).
For SW 1573, the relative viability turned out to be 0.183 with Sulindac + Tozasertib (first compound 0.08 µM); 0.144 with Sulindac + Tozasertib (first compound 0.253 µM); 0.172 with Sulindac + Tozasertib (first compound 2.53 µM); 0.163 with Sulindac + Tozasertib (first compound 8 µM); 0.161 with Staurosporine + OSI-027 (first compound 0.005 µM); 0.11 with Staurosporine + OSI-027 (first compound 0.01581 µM). Moreover, the relative viability with Staurosporine + OSI-027 (first compound 0.05 µM) turned out to be 0.085; with Staurosporine + OSI-027 (first compound 0.1581 µM) it was 0.0637; with Staurosporine + OSI-027 (first compound 0.5 µM) it was 0.0578; in assay [1] (first compound 0.2 µM), 0.597; in assay [1] (first compound 0.6325 µM), 0.519; in assay [1] (first compound 2 µM), 0.328. Besides, the relative viability in assay [2] (first compound 0.02 µM) is 0.873; in assay [2] (first compound 0.2 µM), 0.843; in assay [2] (first compound 0.6325 µM) it was 0.778; in assay [2] (first compound 2 µM), 0.466.
